Laboratory results reported in patent US20220324835A1 (Nurix Therapeutics, Inc., priority 2018, published 2022).
pIC50, pKd: −log10 of the molar value.

Assays:
Cbl-b (residues 36-427) = Cbl-b (residues 36-427) (Homo sapiens, UniProt Q13191); assay: Cbl-b binding assay (SPR, Biacore T200); details: 20° C., 1:1 binding model
Summary of the method: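 Affinities derived from global 1:1 steady-state or kinetic fits of double-referenced, solvent-corrected SPR data, 20 °C, NeutrAvidin-capture chip. Compound series (top 100 or 50 μM, 8–10 points) injected 50 s, 90–180 s dissociation. Asterisked values used 50 mM instead of 100 mM NaCl and 30 nM Src kinase.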

Cbl-b [1] = molecular target: T1, Cbl-b (Homo sapiens, UniProt Q13191); assay: Cbl-b activity assay (Cbl-b inhibition assay), TR-FRET of Cbl-b interaction with UbcH5B-Ub; type: biochemical; details: assay buffer with 100 mM NaCl, 60 nM Src kinase; read-out: Cbl-b activity IC50
Summary of the method: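 TR-FRET readout of Cbl-b binding to Bodipy-fluorescein N-terminally labeled Ub conjugated to UbcH5B C85K, measured with compound present. After compound incubation, 60 nM Src kinase with 1 mM ATP and 5 mM MgCl2 (final) was added for 1.5 h, then a further 1 h incubation; asterisked values used 50 mM NaCl buffer and 30 nM Src.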

Cbl-b [2] = molecular target: T1, Cbl-b; assay: Cbl-b inhibition assay (Cbl-b activity assay, FRET, Biological Example 1; 100 mM NaCl, 60 nM Src kinase); type: biochemical; details: upper bound stated in text lists; read-out: IC50 values in the Cbl-b inhibition assay of Biological Example 1
Summary of the method: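 Here, the E2 UbcH5B, irreversibly linked to Bodipy-fluorescein ubiquitin, binds Cbl-b once Src kinase phosphorylates it; Cbl-b carries an N-terminal biotinylated Avi-tag captured by streptavidin-terbium. An absent FRET signal indicates inhibition.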

T-cells = assay: In vivo activity: CD25 expression on CD4+ or CD8+ T-cells of mice stimulated with anti-CD3 antibody; details: 2 μg anti-CD3 antibody, 24 hours
Procedure: A method of determining the pharmacodynamic profile of Cbl-b inhibitors was performed by dosing strains of mice with competent immune systems such as C57BL/6 or BALB/c with a Cbl-b inhibitor. The Cbl-b inhibitor was dissolved in a suitable formulation and administered by one of various routes such as intravenous (IV), intraperitoneal (IP), subcutaneous (SC), or oral (PO), at a suitable dose level and frequency (e.g. twice per day BID or thrice per day TID) as informed by prior pharmacokinetic and tolerability studies. Following administration of the Cbl-b inhibitor, T-cells and indirectly other immune cells (e.g. via cytokine production) were stimulated in vivo by administration of an anti-CD3 antibody or antigen-binding fragment thereof in PBS at defined amounts such as 2 μg or 10 μg per animal by routes such as IV or IP (See Hirsh et al., J. Immunol., 1989; Ferran, et al., Eur. J. Immunol., 1990). Additional study control arms included groups of mice treated with a vehicle formulation alone (i.e., formulation without the Cbl-b inhibitor and anti-CD3 antibody), a formulation containing the Cbl-b inhibitor alone, a formulation containing the anti-CD3 antibody alone, PBS alone, or combinations of these agents. The level of immune activation was then assessed by analysis of plasma cytokine levels and/or expression of activation markers on immune cells (e.g. T-cells). Blood or lymphoid organs (e.g. spleen) were collected at defined time points (e.g. 8 hours or 24 hours). Blood samples were processed to collect plasma for determination of cytokine levels using standard methods known in the art. Cytokines measured included IL-2, IFNγ, and TNFα. Additional blood samples and lymphoid tissues were processed for flow cytometric analysis of immune cells (e.g. T-cells) using standard methods to determine expression of cell type-specific markers and activation markers such as CD25 and/or CD69. Augmentation of immune stimulation by Cbl-b inhibitor administration was assessed by comparing the relative concentrations of cytokines in plasma, or the expression levels of activation markers on immune cells between appropriate groups (e.g. mice treated with Cbl-b inhibitor and 2 μg anti-CD3 antibody versus mice treated with vehicle and 2 μg anti-CD3 antibody).
Cbl-b inhibitors were tested to determine their ability to induce or enhance the level of cytokines (e.g. IL-2, IFNγ, and TNFα) in blood obtained from treated mice stimulated with an anti-CD3 antibody, which is indicative of modulation of the immune response. Cbl-b inhibitors were also tested to determine their ability to induce or enhance the expression of cell surface markers on T-cells (e.g. CD25 and/or CD69) isolated from treated mice stimulated with an anti-CD3 antibody, which is indicative of modulation of the immune response.
Readouts were reported as fold change over baseline. The fold change was calculated from the mean value of mice treated with Cbl-b inhibitor and 2 μg anti-CD3 antibody, with the baseline defined as the mean value of mice treated with vehicle and 2 μg anti-CD3 antibody. Increases in the percentage of cells with surface expression of CD25 on CD4+ T-cells or CD8+ T-cells greater than 1.5-fold over baseline at 24 hours were considered a positive response. Increases in the plasma concentration of IL-2, IFNγ, and TNFα greater than 1.5-fold over baseline at 8 hours post-stimulation were also considered a positive response (Table 8). Fold changes were ranked into bins according to their readouts as follows: A indicates >2.50, B indicates 2.01-2.50, C indicates 1.51-2.00, D indicates 1.00-1.50, and E indicates <1.00.

T-cell [3] = assay: IL-2 secretion from T-cells stimulated with anti-CD3 antibody alone (Biological Example 2); type: cell-based; details: primary human total T-cells, read-out: IL-2 secretion, Anti-CD3 stimulation, fold change over baseline; for fold induction at 1 µM: 1 μM compound; for fold induction at 8 µM: 8 μM compound
T-cell [4] = assay: IL-2 secretion from T-cells co-stimulated with anti-CD3 and anti-CD28 antibody (Biological Example 2); type: cell-based, human; details: Homo sapiens, T-cell, primary human total T-cells, baseline = anti-CD3/anti-CD28 stimulated cells without inhibitor, read-out: IL-2 secretion, Anti-CD3/Anti-CD28 stimulation, fold change over baseline; for fold induction at 0.3 µM: 0.3 μM compound; for fold induction at 1 µM: 1 μM compound; for fold induction at 4 µM: 4 μM compound
Summary of the method: (§1)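 No assay protocol given; T-cells stimulated with anti-CD3 alone or anti-CD3 plus anti-CD28, with or without Cbl-b inhibitor. Activation read as IL-2 secretion or CD25 surface staining, expressed as fold over baseline from uninhibited cells […].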

T-cell [5] = assay: CD25 cell surface staining on T-cells co-stimulated with anti-CD3 and anti-CD28 antibody (Biological Example 2); type: cell-based, human; details: Homo sapiens, T-cell, primary human total T-cells, baseline = anti-CD3/anti-CD28 stimulated cells without inhibitor, read-out: CD25 staining, Anti-CD3/Anti-CD28 stimulation, fold change over baseline; for fold induction at 0.3 µM: 0.3 μM compound; for fold induction at 1 µM: 1 μM compound; for fold induction at 4 µM: 4 μM compound
Summary of the method: as §1

T-cell [6] = assay: CD25 cell surface staining on T-cells stimulated with anti-CD3 antibody alone (Biological Example 2); type: cell-based; details: primary human total T-cells, baseline = anti-CD3/anti-CD28 stimulated cells without inhibitor, read-out: CD25 staining, Anti-CD3 stimulation, fold change over baseline; for fold induction at 1 µM: 1 μM compound; for fold induction at 8 µM: 8 μM compound

Chain of Cbl-b (residues 36-427) (Q13191 36-427): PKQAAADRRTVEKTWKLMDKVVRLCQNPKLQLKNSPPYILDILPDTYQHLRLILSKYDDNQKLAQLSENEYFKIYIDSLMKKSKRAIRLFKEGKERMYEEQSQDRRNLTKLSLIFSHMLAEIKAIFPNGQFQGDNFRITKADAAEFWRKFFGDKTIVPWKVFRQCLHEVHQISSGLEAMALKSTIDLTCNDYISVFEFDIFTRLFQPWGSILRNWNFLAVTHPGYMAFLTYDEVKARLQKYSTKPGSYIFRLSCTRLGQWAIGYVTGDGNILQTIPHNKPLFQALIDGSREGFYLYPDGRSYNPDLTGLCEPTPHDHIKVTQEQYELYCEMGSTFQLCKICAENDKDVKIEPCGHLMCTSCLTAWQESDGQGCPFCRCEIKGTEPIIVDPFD
T1 sequence (Q13191 36-427): as above

Structure (SMILES)	pKd (Cbl-b (residues 36-427))	pIC50 (Cbl-b [1])	pIC50 (Cbl-b [2])	CD4+ T-cell % CD25+ (T-cells; 135 mpk PO BID)	CD8+ T-cell % CD25+ (T-cells; 135 mpk PO BID)	CD4+ T-cell % CD25+ (T-cells; 180 mpk PO BID)	CD8+ T-cell % CD25+ (T-cells; 180 mpk PO BID)	fold induction at 1 µM (T-cell [3])	fold induction at 8 µM (T-cell [3])	fold induction at 0.3 µM (T-cell [4])	fold induction at 1 µM (T-cell [4])	fold induction at 4 µM (T-cell [4])	fold induction at 0.3 µM (T-cell [5])	fold induction at 1 µM (T-cell [5])	fold induction at 4 µM (T-cell [5])	fold induction at 1 µM (T-cell [6])	fold induction at 8 µM (T-cell [6])
C[C@@H](Cc1nncn1C)c1cccc(N2Cc3c(cccc3C(F)(F)F)C2=O)c1 [Compound 255b]	5.00 to 5.52	5.52 to 6.00	≥ 5.00	E (E indicates <1.00)	E (E indicates <1.00)	E (E indicates <1.00)	E (E indicates <1.00)										
Cn1cnnc1CC(C)(C)c1cccc(NC(=O)c2cc(C(=O)N3CC[C@H](O)C3)cc(C(F)(F)F)n2)c1 [Compound 475, (S)-4-(3-hydroxypyrrolidine-1-carbonyl)-N-(3-(2-methyl-1-(4-methyl-4H-1,2,4-triazol-3-yl)propan-2-yl)phenyl)-6-(trifluoromethyl)picolinamide]	6.52 to 7.00	> 7.00	≥ 7.00					0.101 to 0.15	> 0.201	1.01 to 2.5	2.51 to 5	5 to 7.5	1.01 to 1.3	1.01 to 1.3	1.01 to 1.3	0.801 to 1	> 1
Cn1cnnc1CC(C)(C)c1cccc(N2Cc3c(cc(C4CC4)cc3C(F)(F)F)C2=O)c1 [Compound 477, 6-cyclopropyl-2-(3-(2-methyl-1-(4-methyl-4H-1,2,4-triazol-3-yl)propan-2-yl)phenyl)-4-(trifluoromethyl)isoindolin-1-one]	> 7.00	> 7.00	≥ 7.00					0.101 to 0.15	> 0.201	1.01 to 2.5	2.51 to 5	5 to 7.5	1.01 to 1.3	1.01 to 1.3	1.31 to 1.5	0.801 to 1	> 1
Cn1cnnc1CC1(c2cccc(N3Cc4c(cc(CN5CCC(F)CC5)cc4C(F)(F)F)C3=O)c2)COC1 [Compound 489, 6-[(4-fluoropiperidin-1-yl)methyl]-2-(3-{3-[(4-methyl-1,2,4-triazol-3-yl)methyl]oxetan-3-yl}phenyl)-4-(trifluoromethyl)-3H-isoindol-1-one]		> 7.00	≥ 7.00	C (C indicates 1.51-2.00)	D (D indicates 1.00-1.50)												
Cn1cnnc1CC1(c2cccc(NC(=O)c3cc(Cn4ccnn4)nc(C4CC4)n3)c2)COC1 [Compound 506, 2-cyclopropyl-N-(3-{3-[(4-methyl-1,2,4-triazol-3-yl)methyl]oxetan-3-yl}phenyl)-6-(1,2,3-triazol-1-ylmethyl)pyrimidine-4-carboxamide]	> 7.00	> 7.00	≥ 7.00					0.101 to 0.15		1.01 to 2.5	2.51 to 5		1.01 to 1.3	1.31 to 1.5		0.801 to 1	
Cn1cnnc1CC1(c2cccc(N3Cc4c(cc(CN5CC[C@H](F)C5)cc4C4CC4)C3=O)c2)COC1 [Example 554, (S)-4-cyclopropyl-6-((3-fluoropyrrolidin-1-yl)methyl)-2-(3-(3-((4-methyl-4H-1,2,4-triazol-3-yl)methyl)oxetan-3-yl)phenyl)isoindolin-1-one]	> 7.00	> 7.00	≥ 7.00					0.151 to 0.2		> 7.5	> 7.5		1.31 to 1.5	1.31 to 1.5		> 1	
C[C@@H](c1cc2c(c(C(F)(F)F)c1)CN(c1cccc(C3(Cc4nncn4C)COC3)c1)C2=O)N1CCC(F)CC1 [Example 622a, (S)-6-(1-(4-fluoropiperidin-1-yl)ethyl)-2-(3-(3-((4-methyl-4H-1,2,4-triazol-3-yl)methyl)oxetan-3-yl)phenyl)-4-(trifluoromethyl)isoindolin-1-one]				B (B indicates 2.01-2.50)	D (D indicates 1.00-1.50)												
C[C@H](c1cc2c(c(C(F)(F)F)c1)CN(c1cccc(C3(Cc4nncn4C)COC3)c1)C2=O)N1CCC(F)CC1 [Example 622b, (R)-6-(1-(4-fluoropiperidin-1-yl)ethyl)-2-(3-(3-((4-methyl-4H-1,2,4-triazol-3-yl)methyl)oxetan-3-yl)phenyl)-4-(trifluoromethyl)isoindolin-1-one]				B (B indicates 2.01-2.50)	D (D indicates 1.00-1.50)												
